Assay results from US11780832B2, “Lactivicin compounds, their preparation and use as antibacterial agents” (priority 2021, dated 2023).
Converted amounts (≈) assume the structure as drawn.

What was measured:
Assay in all cases: MIC, CLSI broth microdilution
Assay type in all cases: cell-based
[1] = tested on: Acinetobacter baumannii ATCC 19606; conditions: ATCC19606
Experimental: (§1) Gram-negative and Gram-positive bacterial strains used during the in vitro minimum inhibitory concentration (MIC) determination were obtained either from the American Type Culture Collection (ATCC) or from clinical specimens. All strains were characterized genotypically and the respective antibiotic resistance markers for each strain were identified.
(§2) Isolates were sub-cultured onto appropriate media and stocked in skim milk at −80° C. Following two subcultures from frozen stock, in vitro antimicrobial susceptibility testing was performed using the Clinical and Laboratory Standards Institute (CLSI) broth microdilution method. Briefly, fresh cultures were suspended in culture media to give a final stock inoculum size of 5×10^7 colony forming units per milliliter of broth (CFU/mL). […] 100 μL of the stock solutions were added to the first wells in a 96-well plate and were then diluted using a 2-fold dilution method to give a range of 32-0.025 μg/mL. 100 μL of the bacterial suspensions were then added to the 96-well plates to give a final working inoculum size of 5×10^5 CFU/mL. The final compound concentration range was 16-0.0125 μg/mL. […] MICs for comparator agents were determined using custom-designed, in-house prepared 96-well broth microdilution panels.

[2] = tested on: Citrobacter freundii species complex OXA-181; conditions: Citrobacter freundii species complex, OXA-181; read-out: MIC
Experimental: as §1, §2

[3] = tested on: Enterobacter cloacae species complex NDM-1
Experimental: as §1, §2

[4] = tested on: Escherichia coli ATCC 25922; conditions: ATCC25922
Experimental: as §1, §2

Escherichia coli CMY-2 = conditions: CMY2
Experimental: as §1, §2

[5] = tested on: Escherichia coli CTX-M-15; conditions: CTXM15
Experimental: as §1, §2

[6] = tested on: Escherichia coli Empty pSMART plasmid
Experimental: as §1, §2

[7] = tested on: Escherichia coli Isogenic TEM-10
Experimental: as §1, §2

[8] = tested on: Escherichia coli Isogenic TEM-26
Experimental: as §1, §2

Escherichia coli SHV-12 = conditions: SHV12
Experimental: as §1, §2

[9] = tested on: Escherichia coli pSMART_Cfreundii_AmpC
Experimental: as §1, §2

[10] = tested on: Escherichia coli pSMART_Ecloacae_AmpC
Experimental: as §1, §2

[11] = tested on: Klebsiella aerogenes VIM-1, SHV-12
Experimental: as §1, §2

[12] = tested on: Klebsiella oxytoca KPC-2, TEM-1; conditions: KPC-2, TEM-1, read-out: MIC
Experimental: as §1, §2

[13] = tested on: Klebsiella pneumoniae KPC-2; conditions: KPC2
Experimental: as §1, §2

[14] = tested on: Klebsiella pneumoniae KPC-3; conditions: KPC3, KPC-3, read-out: MIC
Experimental: as §1, §2

[15] = tested on: Klebsiella pneumoniae OXA-163, OXA-1_OXA-30, SHV-1, TEM-1
Experimental: as §1, §2

[16] = tested on: Klebsiella pneumoniae OXA-48, SHV-1
Experimental: as §1, §2

[17] = tested on: Klebsiella pneumoniae SHV-12; conditions: SHV12, SHV-12, read-out: MIC
Experimental: as §1, §2

[18] = tested on: Pseudomonas aeruginosa ATCC 27853; conditions: ATCC27853
Experimental: as §1, §2

[19] = tested on: Pseudomonas aeruginosa AmpC overexpressed
Experimental: as §1, §2

[20] = tested on: Pseudomonas aeruginosa OprD negative
Experimental: as §1, §2

[21] = tested on: Serratia marcescens AmpC overexpressed
Experimental: as §1, §2

[22] = tested on: Serratia marcescens SME-2; conditions: SME2
Experimental: as §1, §2

Row | Structure (SMILES) | MIC [1] | MIC [2] | MIC [3] | MIC [4] | MIC (Escherichia coli CMY-2) | MIC [5] | MIC [6] | MIC [7] | MIC [8] | MIC (Escherichia coli SHV-12) | MIC [9] | MIC [10] | MIC [11] | MIC [12] | MIC [13] | MIC [14] | MIC [15] | MIC [16] | MIC [17] | MIC [18] | other results
1 | Nc1nc(/C(=N/OC2(C(=O)O)CNC2)C(=O)N[C@H]2CON(C3(C(=O)O)C[C@H](N4C(=O)c5cc(O)c(O)cc5C4=O)C(=O)O3)C2=O)cs1 (stereo partly drawn) [Cmpd 7, 3-({(Z)-[1-(2-amino-1,3-thiazol-4-yl)-2-({(4S)-2-[(4S)-2-carboxy-4-(5,6-dihydroxy-1,3-dioxo-1,3-dihydro-2H-isoindol-2-yl)-5-oxooxolan-2-yl]-3-oxo-1,2-oxazolidin-4-yl}amino)-2-oxoethylidene]amino}oxy)azetidine-3-carboxylic acid] | > 16 µg/mL | 1 µg/mL (≈ 1.48 µM) | > 16 µg/mL | 1 µg/mL (≈ 1.48 µM) | 4 µg/mL (≈ 5.92 µM) | 8 µg/mL (≈ 11.8 µM) | 0.12 µg/mL (≈ 0.178 µM) | 0.12 µg/mL (≈ 0.178 µM) | 0.25 µg/mL (≈ 0.37 µM) | 1 µg/mL (≈ 1.48 µM) | 1 µg/mL (≈ 1.48 µM) | 0.5 µg/mL (≈ 0.74 µM) | 8 µg/mL (≈ 11.8 µM) | 0.12 µg/mL (≈ 0.178 µM) | 0.5 µg/mL (≈ 0.74 µM) | 0.5 µg/mL (≈ 0.74 µM) | 0.5 µg/mL (≈ 0.74 µM) | 0.12 µg/mL (≈ 0.178 µM) | 0.5 µg/mL (≈ 0.74 µM) | > 16 µg/mL | MIC [19]: > 16 µg/mL; MIC [20]: > 16 µg/mL; MIC [21]: > 16 µg/mL; MIC [22]: 0.5 µg/mL (≈ 0.74 µM)
2 | Nc1nc(/C(=N/OC2(C(=O)O)CC3CCC(C2)O3)C(=O)N[C@H]2CON(C3(C(=O)O)C[C@H](N4C(=O)c5cc(O)c(O)nc5C4=O)C(=O)O3)C2=O)cs1 (stereo partly drawn) [Cmpd 27, 3-({(Z)-[1-(2-amino-1,3-thiazol-4-yl)-2-({(4S)-2-[(4S)-2-carboxy-4-(2,3-dihydroxy-5,7-dioxo-5,7-dihydro-6H-pyrrolo[3,4-b]pyridin-6-yl)-5-oxooxolan-2-yl]-3-oxo-1,2-oxazolidin-4-yl}amino)-2-oxoethylidene]amino}oxy)-8-oxabicyclo[3.2.1]octane-3-carboxylic acid] | 1 µg/mL (≈ 1.37 µM) | 0.12 µg/mL (≈ 0.164 µM) | 2 µg/mL (≈ 2.73 µM) | 0.5 µg/mL (≈ 0.683 µM) | 4 µg/mL (≈ 5.47 µM) | 8 µg/mL (≈ 10.9 µM) | 0.25 µg/mL (≈ 0.342 µM) | 0.25 µg/mL (≈ 0.342 µM) | 0.12 µg/mL (≈ 0.164 µM) | 8 µg/mL (≈ 10.9 µM) | 0.25 µg/mL (≈ 0.342 µM) | 0.25 µg/mL (≈ 0.342 µM) | 0.12 µg/mL (≈ 0.164 µM) | 0.0149 µg/mL (≈ 0.0204 µM) | 0.06 µg/mL (≈ 0.082 µM) | 0.12 µg/mL (≈ 0.164 µM) | 0.25 µg/mL (≈ 0.342 µM) | 0.03 µg/mL (≈ 0.041 µM) | 0.12 µg/mL (≈ 0.164 µM) | 4 µg/mL (≈ 5.47 µM) | MIC [19]: 4 µg/mL (≈ 5.47 µM); MIC [20]: 2 µg/mL (≈ 2.73 µM); MIC [21]: 0.5 µg/mL (≈ 0.683 µM); MIC [22]: 1 µg/mL (≈ 1.37 µM)
